From ChEMBL document CHEMBL1156844, “Inhibition of neuraminidase activity by polyphenol compounds isolated from the roots of Glycyrrhiza uralensis” (Bioorg Med Chem Lett, 2010)
pIC50, pKi: −log10 of the molar value.

Key:
[1] = Inhibition of Spanish flu (A/Bervig_Mission/1/18) neuraminidase; design: species or system Influenza A virus (A/Brevig Mission/1/1918(H1N1))
[2] = Inhibition of Spanish flu (A/Bervig_Mission/1/18) neuraminidase by noncompetitive inhibition assay; design: species or system Influenza A virus (A/Brevig Mission/1/1918(H1N1))
[3] = tested on: Influenza A virus (A/Brevig Mission/1/1918(H1N1)); test: Inhibition of Spanish flu (A/Bervig_Mission/1/18) neuraminidase at 200 uM

| SMILES | pIC50 [1] | pKi [2] | inhibition [3] [%] |
| --- | --- | --- | --- |
| O=C(/C=C/c1ccc(O)cc1)c1ccc(O)cc1O [ISOLIQUIRITIGENIN] | 5.05 | 5.00 |  |
| COc1cc2c(c(OC)c1CC=C(C)C)C(=O)[C@H](c1ccc(O)c(CC=C(C)C)c1O)CO2 |  |  | 30 |
| COc1cc2c(c(OC)c1CC=C(C)C)C[C@H](c1ccc(O)cc1O)CO2 |  |  | 20 |
| O=C1C[C@@H](c2ccc(O[C@@H]3O[C@H](CO)[C@@H](O)[C@H](O)[C@H]3O[C@H]3OC[C@@](O)(CO)[C@@H]3O)cc2)Oc2cc(O)ccc21 [LIQUIRITIN APIOSIDE] | 4.74 | 4.69 |  |
| CC(C)=CCc1c(O)cc2oc(-c3ccc(O)cc3)c(O)c(=O)c2c1O [LICOFLAVONOL] | 4.69 | 4.48 |  |
| O=C(/C=C/c1ccc(O[C@@H]2O[C@H](CO)[C@@H](O)[C@H](O)[C@H]2O)cc1)c1ccc(O)cc1O [ISOLIQUIRITIN] | 3.91 | 4.03 |  |
| COc1cc(O)c2c(=O)c(OC)c(-c3ccc(O)cc3)oc2c1 [KUMATAKENIN] | 4.44 | 4.04 |  |
| CCOC(=O)C1=C[C@@H](OC(CC)CC)[C@H](NC(C)=O)[C@@H](N)C1 [OSELTAMIVIR] | 5.80 |  |  |
| COc1cc(O)ccc1C(=O)/C=C/c1ccc(O)cc1 | 4.61 | 4.70 |  |
| COc1c2c(cc3oc(=O)c(-c4ccc(O)cc4O)cc13)OC(C)(CO)CC2 (stereo unspecified) |  |  | 10 |
| COc1c(CC=C(C)C)c(O)cc2oc(-c3ccc(O)cc3O)cc12 [LICOCOUMARONE] | 4.56 | 4.92 |  |
| COc1c(CC=C(C)C)c(O)cc2oc(=O)c3c4ccc(O)cc4oc3c12 [GLYCYROL] | 5.51 | 5.54 |  |
| O=C1C[C@@H](c2ccc(O[C@@H]3O[C@H](CO)[C@@H](O)[C@H](O)[C@H]3O)cc2)Oc2cc(O)ccc21 [LIQUIRITIN] | 4.08 | 3.91 |  |
| O=C(/C=C/c1ccc(O[C@@H]2O[C@H](CO)[C@@H](O)[C@H](O)[C@H]2O[C@H]2OC[C@@](O)(CO)[C@@H]2O)cc1)c1ccc(O)cc1O [ISOLIQUIRITIN APIOSIDE] | 4.89 | 4.85 |  |
| COc1c(CC=C(C)C)c(O)cc2c1C[C@H](c1ccc(O)cc1O)CO2 |  |  | 20 |
| O=C1C[C@@H](c2ccc(O)cc2)Oc2cc(O)ccc21 [LIQUIRTIGENIN] | 4.33 | 4.48 |  |
| COc1c2c(cc3oc(=O)c4c5ccc(O)cc5oc4c13)OC(C)(C)CC2 [ISOGLYCYROL] | 4.03 | 4.11 |  |
| COc1ccc(-c2coc3cc(O[C@@H]4O[C@H](CO)[C@@H](O)[C@H](O)[C@H]4O)ccc3c2=O)cc1 |  |  | 30 |
| COc1cc2oc(=O)c(-c3ccc(O)cc3O)cc2c(OC)c1CC=C(C)C |  |  | 10 |
